Patent US20090181990A1 (priority 2007, published 2009)

Key:
Format in all cases: physicochemical
[1] = Amorphous pemetrexed disodium stability study (HPLC purity, moisture content, XRD on storage); set-up: key to HPLC: % chromatographic purity by HPLC area normalisation; details: for HPLC: in % (unit assumed)
Protocol: (§1) X-ray diffraction data were acquired using a PANalyticalX′pert PRO X-ray diffractometer model.
(§2) System description: Kα1=1.54060 A^0, voltage 45 kV, current 40 mA, Xray source: Cu.
(§3) Experiment parameters: pattern measured between 2θ=4° and 2θ=40° with 0.05° increments; count time was 0.5 second per increment.
(§4) The water content measurements were carried out using a METTLER TOLEDO Model: DL31Karl Fischer Titrator according to standard procedures.
(§5) Purity by HPLC was performed by Waters 2690 Seperations module.system.
The samples were packed in double seal poly bags followed by Aluminium bag sealed under nitrogen with oxygen trapper and stored • at 2-8° C. for a period of six months • 25° C./60% relative humidity (RH) for a period of six months.
The purity of the sample was checked by HPLC and XRD was recorded for the samples stored under these conditions after 2 months and 6 months.
Inject 20 μl of test solution and calculate the chromatographic purity by area normalisation method.

[2] = Bulk and tapped density (tap density tester, USP)
Source text: As referred to herein the term “bulk density” is the weight of the sample divided by its non packed volume and the term “tapped density” is the weight of the sample divided by its packed volume. The units of bulk density are grams (gm) per cubic centimeter (cc) or grams (gm) per milliliter (ml). A powder having low bulk density will be lightweight, fluffy and have greater surface area. A powder with high density will be much more compact and dense, exist as harder particles and will result in a more flowable product compared to powder with low bulk density. Bulk and tapped densities were measured using Electrolab ETD-1020 tap density tester (USP).

[3] = Material kept outside at room temperature for 15 hrs (XRD, water content, HPLC purity); details: after room temperature
Protocol: as §1, §4, §5
The material was kept outside at room temperature for 15 hrs.

[4] = Conservation of amorphous form under various storage conditions (XRD, moisture content)
Protocol: as §1, §2, §3, §4

[5] = 2-8° C. or 25° C./60% relative humidity, six months
[6] = 40° C./75% relative humidity for 7 days, double polythene bags in a fiber drum
[7] = 80° C. for 7 days, open petriplate
[8] = Room temperature for 24 hours, open petriplate
[9] = Room temperature for 40 days, double polythene bags

| % Moisture Content ([1]; 2-8° C., 2 Months) [%] | % Moisture Content ([1]; 2-8° C., 6 Months) [%] | XRD ([1]; 2-8° C., 6 Months) | HPLC ([1]; 2-8° C., 6 Months) | % Moisture Content ([1]; 2-8° C., Initial) [%] | HPLC ([1]; 2-8° C., Initial) | % Moisture Content ([1]; 25° C. RH 60%, 2 Months) [%] | % Moisture Content ([1]; 25° C. RH 60%, 6 Months) [%] | HPLC ([1]; 25° C. RH 60%, 6 Months) | % Moisture Content ([1]; 25° C. RH 60%, Initial) [%] | HPLC ([1]; 25° C. RH 60%, Initial) | SMILES | also measured |
| --- | --- | --- | --- | --- | --- | --- | --- | --- | --- | --- | --- | --- |
| 11.68 | 12.31 | Amorphous | 99.59 | 15.92 | 99.66 | 10.26 | 11.45 | 99.63 | 15.92 | 99.66 | Nc1nc2[nH]cc(CCc3ccc(C(=O)NC(CCC(=O)[O-])C(=O)[O-])cc3)c2c(=O)[nH]1.[Na+].[Na+] (stereo not shown) [Amorphous Form of Pemetrexed Disodium, with Moisture Content] [listing 1 of 2 here] | – |
| – | – | – | – | – | – | – | – | – | – | – | Nc1nc2[nH]cc(CCc3ccc(C(=O)NC(CCC(=O)[O-])C(=O)[O-])cc3)c2c(=O)[nH]1.[Na+].[Na+] (stereo not shown) [Example 2, amorphous pemetrexed disodium] | Bulk density [2]: 0.226 gm/ml; Tapped density [2]: 0.369 gm/ml |
| 8.96 | 9.39 | Amorphous | 99.62 | 9.04 | 99.68 | 8.39 | 8.85 | 99.67 | 9.04 | 99.68 | Nc1nc2[nH]cc(CCc3ccc(C(=O)NC(CCC(=O)[O-])C(=O)[O-])cc3)c2c(=O)[nH]1.[Na+].[Na+] (stereo not shown) [Amorphous Form of Pemetrexed Disodium, with Moisture Content] [listing 2 of 2 here] | HPLC ([1]; 2-8° C., 2 Months): 99.72; XRD ([1]; 2-8° C., Initial): Amorphous; HPLC ([1]; 25° C. RH 60%, 2 Months): 99.72; XRD ([1]; 25° C. RH 60%, 6 Months): Amorphous; XRD ([1]; 25° C. RH 60%, Initial): Amorphous |
| – | – | – | – | – | – | – | – | – | – | – | Nc1nc2[nH]cc(CCc3ccc(C(=O)NC(CCC(=O)[O-])C(=O)[O-])cc3)c2c(=O)[nH]1.[Na+].[Na+] (stereo not shown) [Example 3, amorphous pemetrexed disodium] | HPLC purity [3]: 99.66%; Water content [3]: 16%; X-ray diffraction (form) [3]: amorphous form is retained |
| – | – | – | – | – | – | – | – | – | – | – | Nc1nc2[nH]cc(CCc3ccc(C(=O)NC(CCC(=O)[O-])C(=O)[O-])cc3)c2c(=O)[nH]1.[Na+].[Na+] (stereo not shown) [amorphous form of pemetrexed disodium, pemetrexed disodium] | amorphous form after storage (XRD) [1, 5]: amorphous form is retained; impurity formation / chemical purity after storage (HPLC) [1, 5]: no significant formation of impurities; % Moisture Content after storage [4, 6]: 18.27%; XRD [4, 6]: Amorphous form; % Moisture Content after storage [4, 7]: 6.24%; XRD [4, 7]: Amorphous form; % Moisture Content after storage [4, 8]: 20.03%; XRD [4, 8]: Amorphous form; % Moisture Content after storage [4, 9]: 18.56; XRD [4, 9]: Amorphous form; % Moisture Content Initial ([4]; before storage): 5.48% |
